The record followed here is ChEMBL document CHEMBL3994619, “Inhibition of invasion by N-trans-feruloyloctopamine via AKT, p38MAPK and EMT related signals in hepatocellular carcinoma cells” (Bioorg Med Chem Lett, 2017).

By IC50 is commonly meant the point on the concentration scale where inhibition reaches its midpoint.

Data set [1] relates to Huh-7. The experiment in a line: Antiproliferative activity against human HuH7 cells assessed as reduction in cell viability after 48 hrs by CCK8 assay. The data set is classed as functional, cell-based. The conditions noted are these: Huh-7, 48 h.
Data set [2] deals with HCCLM3. Nature of the data set: Antiproliferative activity against human HCCLM3 cells assessed as reduction in cell viability after 48 hrs by CCK8 assay. The conditions noted are these: HCCLM3, 48 h. The data set is classed as functional, cell-based. (Formazan colour is commonly taken as a measure of viable cells.)
In data set [3] the test system is HCCLM3. The experiment in a line: Antimigratory activity in human HCCLM3 cells assessed as wound closure at 2 mM after 48 hrs by inverted microscopic method. The data set is classed as functional, cell-based.
The subject of data set [4] is Huh-7. Nature of the data set: Antimigratory activity in human HuH7 cells assessed as wound closure at 2 mM after 48 hrs by inverted microscopic method. The data set is classed as functional, cell-based.
Data set [5] has as its system Huh-7. Nature of the data set: Anti-invasive activity in human HuH7 cells assessed as invasive cell count at 2 mM after 48 hrs using Giemsa dye by matrigel based microscopic method (reference value: 36 +/- 6). The data set is classed as functional.
Data set [6] relates to HCCLM3. Nature of the data set: Anti-invasive activity in human HCCLM3 cells assessed as invasive cell count at 2 mM after 48 hrs using Giemsa dye by matrigel based microscopic method (reference value: 64.7 +/- 9.3). The data set is classed as functional.
The target of data set [7] is Transcription factor p65 (Homo sapiens) (UniProt Q04206). The experiment in a line: Effect on p65 phosphorylation in human HCCLM3 cells at 2 mM after 48 hrs by western blot analysis. The data set is classed as cell-based. Background: Immunoblotting shows a protein as a band on a membrane.
Data set [8] has as its target Mitogen-activated protein kinase; ERK1/ERK2 (Homo sapiens) (UniProt P27361+P28482). The experiment in a line: Effect on ERK1/2 phosphorylation in human HCCLM3 cells at 2 mM after 48 hrs by western blot analysis. The data set is classed as cell-based.
The species named for data set [9] is Homo sapiens. The experiment in a line: Reduction in Akt phosphorylation in human HuH7 cells at 2 mM after 48 hrs by western blot analysis. The data set is classed as cell-based.
The species named for data set [10] is Homo sapiens. Nature of the data set: Reduction in Akt phosphorylation in human HCCLM3 cells at 2 mM after 48 hrs by western blot analysis. The data set is classed as cell-based.
Data set [11] has as its target T1, MAP kinase p38 (Homo sapiens) (UniProt O15264+Q15759+Q16539+P53778). The experiment in a line: Reduction in p38 phosphorylation in human HuH7 cells at 2 mM after 48 hrs by western blot analysis. The data set is classed as cell-based.
Data set [12] deals with T1, MAP kinase p38 (Homo sapiens). The experiment in a line: Reduction in p38 phosphorylation in human HCCLM3 cells at 2 mM after 48 hrs by western blot analysis. The data set is classed as cell-based.
Data set [13] deals with HCCLM3. Nature of the data set: Upregulation of E-cadherin in human HCCLM3 cells after 48 hrs by western blot analysis. The data set is classed as functional, cell-based.
The test system of data set [14] is HCCLM3. Nature of the data set: Downregulation of slug in human HCCLM3 cells at 2 mM after 48 hrs by western blot analysis. The data set is classed as functional, cell-based.
Data set [15] relates to HCCLM3. The experiment in a line: Cytotoxicity against human HCCLM3 cells after 48 hrs by CCK8 assay. The data set is classed as cell-based. The conditions noted are these: hcclm3, 48 h.

Activity calls are given as the source filed them. The calls are words filed in the database; no cut-off is given here.

Chain of Mitogen-activated protein kinase; ERK1/ERK2 (Homo sapiens) (P27361 whole entry, looked up): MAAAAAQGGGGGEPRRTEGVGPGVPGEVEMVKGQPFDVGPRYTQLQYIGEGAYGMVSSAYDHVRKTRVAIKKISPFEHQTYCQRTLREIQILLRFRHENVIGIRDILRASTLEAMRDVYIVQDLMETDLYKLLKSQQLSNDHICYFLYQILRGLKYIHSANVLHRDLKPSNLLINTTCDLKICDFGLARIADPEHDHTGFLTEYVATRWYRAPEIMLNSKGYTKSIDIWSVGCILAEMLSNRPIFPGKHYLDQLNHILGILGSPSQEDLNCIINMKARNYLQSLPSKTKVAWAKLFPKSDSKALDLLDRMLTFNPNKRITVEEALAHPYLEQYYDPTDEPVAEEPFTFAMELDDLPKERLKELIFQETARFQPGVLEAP
Chain of Mitogen-activated protein kinase; ERK1/ERK2 (Homo sapiens) (P28482 whole entry, looked up): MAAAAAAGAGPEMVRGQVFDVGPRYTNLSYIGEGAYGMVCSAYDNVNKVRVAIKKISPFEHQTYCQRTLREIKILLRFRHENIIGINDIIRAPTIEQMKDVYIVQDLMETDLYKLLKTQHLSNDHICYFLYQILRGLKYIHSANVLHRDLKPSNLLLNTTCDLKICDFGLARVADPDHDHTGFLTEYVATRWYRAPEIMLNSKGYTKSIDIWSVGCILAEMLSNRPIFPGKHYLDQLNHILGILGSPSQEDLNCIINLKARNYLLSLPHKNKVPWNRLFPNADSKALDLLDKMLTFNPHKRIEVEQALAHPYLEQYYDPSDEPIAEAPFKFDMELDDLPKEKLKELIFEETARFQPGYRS
Chain of Transcription factor p65 (Homo sapiens) (Q04206 whole entry): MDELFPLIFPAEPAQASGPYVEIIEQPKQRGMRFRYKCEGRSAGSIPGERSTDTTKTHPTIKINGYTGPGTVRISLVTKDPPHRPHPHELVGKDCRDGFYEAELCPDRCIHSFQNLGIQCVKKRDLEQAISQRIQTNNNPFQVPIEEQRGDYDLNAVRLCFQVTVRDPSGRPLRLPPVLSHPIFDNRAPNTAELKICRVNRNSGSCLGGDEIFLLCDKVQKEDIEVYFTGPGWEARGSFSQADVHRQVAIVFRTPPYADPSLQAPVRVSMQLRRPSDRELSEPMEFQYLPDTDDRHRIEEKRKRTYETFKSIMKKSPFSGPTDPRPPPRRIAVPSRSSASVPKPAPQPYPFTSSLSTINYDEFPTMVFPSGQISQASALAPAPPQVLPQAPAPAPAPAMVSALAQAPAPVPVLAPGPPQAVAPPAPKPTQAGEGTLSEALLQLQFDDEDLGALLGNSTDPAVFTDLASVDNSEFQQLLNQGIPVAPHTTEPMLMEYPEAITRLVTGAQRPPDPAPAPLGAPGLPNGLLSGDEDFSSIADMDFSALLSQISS

On to `O=c1[nH]cc(F)c(=O)[nH]1` [FLUOROURACIL], for which the results for the IC50 in the data set with Huh-7 [1] and in the data set with HCCLM3 [2] were 2.98 mM and 1.84 mM, respectively.

Consider `COc1cc(/C=C/C(=O)NCC(O)c2ccc(O)cc2)ccc1O` (configuration not stated), for which the figures for the IC50 in the data set with Huh-7 [1] and with HCCLM3 [2] were 1.99 mM and 2.27 mM, respectively. For the same molecule, the result (in the data set with HCCLM3 [3]; in the data set with Huh-7 [4]; in data set [7]; in [8]) was inactive. In addition, the Activity is listed as 11.7 with Huh-7 [5], 23.3 in the data set on HCCLM3 [6] and “Non-Toxic” with HCCLM3 [15]. Further, the outcome (in the data set filed under Homo sapiens [9]; in the data set listed under Homo sapiens [10]; in data set [11]; in [12]; in the data set on HCCLM3 [13]; with HCCLM3 [14]) was Active.
